{
  "source": "patent US20230119324A1",
  "about": "“EGFR INHIBITION TRIGGERS AN ADAPTIVE RESPONSE BY CO-OPTING ANTIVIRAL SIGNALING PATHWAYS IN LUNG CANCER” (The United States Government as represented by the …, priority 2020, published 2023)",
  "molecules": {"B1": {"name": "IFNα: Recombinant human IFNα1, exogenous Type I interferon (protein, UniProt P01562 24-189, looked up)", "Interferon alpha-1/13": "CDLPETHSLDNRRTLMLLAQMSRISPSSCLMDRHDFGFPQEEFDGNQFQKAPAISVLHELIQQIFNLFTTKDSSAAWDEDLLDKFCTELYQQLNDLEACVMQEERVGETPLMNADSILAVKKYFRRITLYLTEKKYSPCAWEVVRAEIMRSLSLSTNLQERLRRKE"}, "B2": {"name": "Anifrolumab: monoclonal antibody directed against IFNAR that inhibits the binding of Type I IFNs to its receptor (antibody, chains of the INN, looked up)", "heavy": "EVQLVQSGAEVKKPGESLKISCKGSGYIFTNYWIAWVRQMPGKGLESMGIIYPGDSDIRYSPSFQGQVTISADKSITTAYLQWSSLKASDTAMYYCARHDIEGFDYWGRGTLVTVSSASTKGPSVFPLAPSSKSTSGGTAALGCLVKDYFPEPVTVSWNSGALTSGVHTFPAVLQSSGLYSLSSVVTVPSSSLGTQTYICNVNHKPSNTKVDKRVEPKSCDKTHTCPPCPAPEFEGGPSVFLFPPKPKDTLMISRTPEVTCVVVDVSHEDPEVKFNWYVDGVEVHNAKTKPREEQYNSTYRVVSVLTVLHQDWLNGKEYKCKVSNKALPASIEKTISKAKGQPREPQVYTLPPSREEMTKNQVSLTCLVKGFYPSDIAVEWESNGQPENNYKTTPPVLDSDGSFFLYSKLTVDKSRWQQGNVFSCSVMHEALHNHYTQKSLSLSPG", "light": "EIVLTQSPGTLSLSPGERATLSCRASQSVSSSFFAWYQQKPGQAPRLLIYGASSRATGIPDRLSGSGSGTDFTLTITRLEPEDFAVYYCQQYDSSAITFGQGTRLEIKRTVAAPSVFIFPPSDEQLKSGTASVVCLLNNFYPREAKVQWKVDNALQSGNSQESVTEQDSKDSTYSLSSTLTLSKADYEKHKVYACEVTHQGLSSPVTKSFNRGEC"}},
  "key": {"[1]": {"test_system": "Type I interferons (IFNα1, IFNβ1)", "test": "qPCR and ELISA for Type I interferons in NSCLC cell lines", "type": "cell-based, human", "conditions": "BX795 1 µM, BMS-345541 0.1 µM", "description": "Total RNA was isolated by TRIzol Reagent (Fisher Scientific). cDNA Reverse Transcription was performed by using High-Capacity cDNA Reverse Transcription Kit (Applied Biosystems). PCR primers were synthesized by IDT (Coralville, IA). Each PCR reaction was carried out in triplicate in a 20 µl volume using SYBR Green Master Mix (Applied Biosystems) for 15 minutes at 95° C. for initial denaturing, followed by 40 cycles of 95° C. for 15 s and 60° C. for 60 s in ViiA 7 Real-Time PCR System (Applied Biosystems). At least three independent experiments were done. Values for each gene were normalized to expression levels of ACTB (β-Actin) mRNA. Primer sequences were as follows.\nTo detect IFNα and IFNβ levels in medium, cells were cultured in serum free medium and treated with indicated drugs for 48 hours. Supernatant was then collected and concentrated using a Pierce protein concentrator (Thermo-Fisher). To test IFNα and IFNβ in lysates, cell and tumor lysates were extracted using RIPA buffer. Total protein concentrations were determined by Pierce BCA Protein Assay Kit (Fisher Scientific). Then, the levels of IFNα and IFNβ protein were measured by ELISA using human IFNα ELISA kit (41100) and human IFNβ ELISA kit (41440), from PBL Assay Science (Piscataway, NJ) according to the manufacturer’s protocol.\nATCB (β-Actin) expression was the loading control.\nIFNα1 and IFNβ1 mRNA levels were detected by qPCR with β-Actin as the loading control.\nIFNα1 and IFNβ1 mRNA levels were detected by qPCR. β-Actin was used as the loading control. Data refers to mean ± S.E.M, n=3 independent repeated experiments. One-way ANOVA with Dunnett’s test was used to determine adjusted p value for comparison between untreated and each treated sample. *: p<0.05, **: p<0.01, ***: p<0.001. H1666 is reported to harbor IFNA1 homodeletion in COSMIC (Catalogue Of Somatic Mutations In Cancer)-v90 http://cancer.sanger.ac.uk/cosmic (Updated 5 Sep. 2019), also in Data from a CPRIT (Cancer Prevention & Research Institute of Texas)-funded NGS (next generation sequencing) project by Dr. John Minna, UT Southwestern Medical Center, and Data from Dr. Adi Gazdar, UT Southwestern Medical Center. All other cell lines used in this research were searched on those databases above and confirmed to harbor neither IFNA1 nor IFNB1 homodeletion. Western blots are representative of 3 independent experiments with similar results. Cropped images are shown. Uncropped Western blot images are shown in Source Data.\nThe protein concentration of IFNα1 and IFNβ1 in cell lysates were measured by ELISA. […]\nIFNA1 andIFNB1 mRNA levels were tested by qPCR. IκBα-DN overexpression was detected by Western blot. […]\nReferring to FIGS. 14T-U, H1975 cells were treated with 0.1 µM Afatinib for indicated time points, IFNA1 and IFNB1 mRNA levels were detected by qPCR."}, "[2]": {"test_system": "EGFR mutant NSCLC cell lines", "test": "AlamarBlue cell viability assay, EGFR mutant NSCLC cell lines", "type": "cell-based", "conditions": "for effect on pro-survival effect of exogenous Type I IFNs under EGFR inhibition: EGFR mutant lines, 50 ng/mL IFNα1 or IFNβ1, 72 h, Etanercept 50 µg/mL, BMS-345541 0.1 µM", "description": "(§1) Cell viability assays were conducted with AlamarBlue Cell Viability Reagent from ThermoFisher (Waltham, MA), following the manufacturer’s protocol. Cells were cultured in Coming (Corning, NY) 96-well black plates with clear bottom and detected by the POLARstar Omega Microplate Reader (BMG LABTECH) (excitation at 544 nm and emission at 590 nm). At least 3 independent experiments were done."}, "IRF3": {"test_system": "IRF3", "test": "ISRE / IFI27-ISRE luciferase reporter assay", "type": "cell-based", "conditions": "EGFR mutant cells; erlotinib 0.1 µM and 1 µM BX795, 24 h", "description": "(§2) Cells were plated in 48 well dishes followed by plasmid transfection with two reporters detecting activation of IRF3, ISRE-luciferase reporter or IFI27-ISRE luciferase reporter^22, using lipofectamine 2000. A dual-luciferase reporter assay system was used according to the instructions of the manufacturer (Promega, Madison WI). Firefly luciferase activity was measured in the POLARstar Omega Microplate Reader (BMG LABTECH) and normalized based on Renilla luciferase activity. Three independent experiments were done in triplicate."}, "TBK1 and IRF3": {"test_system": "TBK1 and IRF3", "test": "Western blot for TBK1 and IRF3 activation in NSCLC cell lines", "type": "cell-based", "conditions": "EGFR mutant cells; 0.1 µM erlotinib and 1 µM BX795, 24 hours", "description": "(§3) Western blot and immunoprecipitation were performed according to standard protocols. Western blot results are representative of at least 3 independent experiments. EGFR (06-847) antibody was from EMD Millipore (Billerica, MA); p-EGFR (Tyr1068) (2236), p-TBK1 (Ser172) (5483), TBK1 (3504), IKKε (2905), IRF3 (11904), K63-Ub (12930), RIG-I (3743), STAT1 (9172), p-STAT1 (Tyr701) (9167), AhR (83200), LAMIN A/C (4777), STING (3337), p-STING (Ser366) (19781), PD1 (86163), PD-L1 (13684), PD-L2 (82723) and IκBα (4814) antibodies were from Cell Signaling Technology (Danvers, MA); IFNAR1 (sc-7391), IFNGR1 (sc-12755), TNFR1 (sc-8346), and β-Actin (sc-47778) were from Santa Cruz Biotechnology (Dallas, TX); TRIM32 (Mab6515) antibody was from R&D (Minneapolis, MN); p-IRF3 (Ser386) (ab76493) antibody was from Abcam (Cambridge, MA)."}, "NF-κB": {"test_system": "NF-κB", "test": "NF-κB luciferase reporter assay, TNF stimulation", "type": "cell-based", "conditions": "EGFR mutant lines; 10 µg/mL Etanercept 1 h, then 10 ng/mL TNF 24 h", "description": "as §2\nReferring to FIG. 16G and FIG. 16H, EGFR mutant lines were transfected with an NF-κB reporter for 48 h, followed by 10 µg/mL Etanercept for 1 h and then 10 ng/mL TNF for 24 h, followed by a luciferase assay or Western blot."}, "PD-L1": {"test_system": "PD-L1", "test": "Western blot for PD-L1 in NSCLC cell lines", "type": "cell-based", "conditions": "HCC827 and H3255; 100 or 10 nM erlotinib 24 h, 10 µg/mL Anifrolumab", "description": "as §3\nPD-1, PD-L1, and PD-L2 expression was detected by Western blot. PD-L1 expression levels were partly shown above. Signalstrength was represented by symbols. -: undetected, +: weak, ++: expressed, +++: strong signals. Western blot and Immunofluorescent staining images are representative of 3 independent experiments with similar results. Cropped images are shown. Uncropped Western blot images are shown in Source Data."}, "EGFRwt NSCLC cell lines": {"test_system": "EGFRwt NSCLC cell lines", "test": "AlamarBlue cell viability assay, EGFRwt NSCLC cell lines", "type": "cell-based", "conditions": "72 h", "description": "as §1\nWestern blot confirming the silencing of IFNAR1.\nData represents mean ± S.E.M. of three independent repeated experiments. *: p<0.05, **: p<0.01, ***: p<0.001, by two-way ANOVA adjusted by Bonferroni’s correction. Western blots are representative of 3 independent experiments with similar results. Cropped images are shown. Uncropped Western blot images are shown in Source Data."}, "[3]": {"test_system": "HCC827 derived ER3, ER4A, ER4B, ER5", "test": "AlamarBlue assay in HCC827-derived erlotinib-resistant lines", "type": "cell-based", "conditions": "10 µg/mL Anifrolumab with erlotinib, 72 hours", "description": "as §1\n(§4) IFNAR1 siRNA was confirmed by Western blot."}, "STAT1": {"test_system": "STAT1", "test": "Western blot for total and phosphorylated STAT1", "type": "cell-based", "conditions": "0.1 or 1 µM erlotinib with 10 µg/mL Anifrolumab", "description": "as §3\nCell lysates were collected and subjected to Western blot for detection of total and phosphorylated STAT1 expression. β-Actin was the loading control."}, "H1975 cells": {"test_system": "H1975 cells", "test": "AlamarBlue assay in H1975 cells", "type": "cell-based", "conditions": "10 µg/mL Anifrolumab with 0.1 µM Afatinib, 72 hours", "description": "as §1, §4"}, "[4]": {"conditions": "EGFR mutant cell lines, 0.1 µM erlotinib 24 h, Etanercept 10 µg/mL"}},
  "data": [
    {"molecule": "Cc1ccc2nc(NCCN)c3ncc(C)n3c2c1", "note": "[BMS-345541]", "values": [
      {"measurement": "effect on erlotinib-induced upregulation of IFN", "setting": "[1]; EGFRwt cell lines, 1 µM erlotinib 24 h", "value": "blocks EGFR inhibition-induced upregulation of IFN"},
      {"measurement": "effect on pro-survival effect of exogenous Type I IFNs under EGFR inhibition", "setting": "[2]; 0.1 µM erlotinib", "value": "fail to abrogate the protective effect of type I IFNs"}
    ]},
    {"molecule": "O=C(NCCCNc1nc(Nc2cccc(NC(=O)N3CCCC3)c2)ncc1I)c1cccs1", "note": "[BX-795]", "values": [
      {"measurement": "effect on erlotinib-induced upregulation of IFN", "setting": "[1]; [4]", "value": "completely suppressed erlotinib-induced upregulation of IFN"},
      {"measurement": "effect on erlotinib-induced IRF3 transcriptional activity", "setting": "IRF3", "value": "loss of erlotinib-induced IRF3 transcriptional activity"},
      {"measurement": "effect on EGFR inhibition-induced IRF3 phosphorylation", "setting": "TBK1 and IRF3", "value": "loss of EGFR inhibition-induced IRF3 phosphorylation"},
      {"measurement": "combination with EGFR inhibition in cell viability assays", "setting": "[2]; four EGFR mutant cell lines, 0.01 µM erlotinib and 1 µM BX795, 72 hours", "value": "synergized with EGFR inhibition"}
    ]},
    {"molecule": "Etanercept", "values": [
      {"measurement": "effect on erlotinib-induced upregulation of IFN", "setting": "[1]; [4]", "value": "failed to inhibit erlotinib induced upregulation of type I IFNs"},
      {"measurement": "effect on TNF-induced activation of NF-κB", "setting": "NF-κB", "value": "efficiently blocked TNF-induced activation of NF-κB"},
      {"measurement": "effect on pro-survival effect of exogenous Type I IFNs under EGFR inhibition", "setting": "[2]; 0.1 µM erlotinib", "value": "fails to block the pro-survival effects of IFNs"}
    ]},
    {"molecule": "B1", "values": [
      {"measurement": "protection from erlotinib-induced cell death", "setting": "[2]; EGFR mutant cell lines, 0.1 µM erlotinib, IFNα1 or IFNβ1 50 ng/mL, 72 h", "value": "protects NSCLC cells with mutant EGFR activating from cell death"}
    ]},
    {"molecule": "B2", "values": [
      {"measurement": "effect on erlotinib-induced upregulation of PD-L1", "setting": "PD-L1", "value": "abrogated"},
      {"measurement": "sensitivity to erlotinib (cell viability)", "setting": "EGFRwt NSCLC cell lines; EGFRwt lines with Ros1 mutation, EML4/ALK fusion, Met amplification, Braf mutation, 10 µg/mL Anifrolumab", "value": "resulted in sensitivity to erlotinib"},
      {"measurement": "sensitivity to erlotinib (cell viability)", "setting": "EGFRwt NSCLC cell lines; resistant EGFRwt/KRas cell lines, 1 µM erlotinib with 10 µg/mL Anifrolumab", "value": "enhanced sensitivity to erlotinib"},
      {"measurement": "sensitivity to erlotinib in secondary resistant lines", "setting": "[3]", "value": "restore sensitivity to erlotinib"},
      {"measurement": "effect on erlotinib induced activation of STAT1", "setting": "STAT1", "value": "blocks erlotinib induced activation of STAT1"},
      {"measurement": "sensitivity to afatinib", "setting": "H1975 cells", "value": "rendered sensitive to afatinib"}
    ]}
  ]
}
